Data published in patent US9963474B2, “Mitochondria-targeted dicarbonyl sequestering compounds” (MEDICAL RESEARCH COUNCIL, priority 2013, dated 2018).

Experiments:
[1] = Stability of compounds assessed by RP-HPLC; format: physicochemical
Method: RP-HPLC was performed using a Gilson 321 pump with a C18 column (Jupiter 300 Å, Phenomenex) with a Widepore C18 guard column (Phenomenex). Samples (1 ml) were injected through a 0.22 μm PVDF filter (Millex, Millipore). HPLC buffer A [0.1% TFA in water] and HPLC buffer B (90% acetonitrile and 0.1% TFA) were used and a gradient was run at 1 ml/min at room temperature as follows: 0-2 min—5% B; 2-17 min—5-100% B; 17-19 min—100% B; 19-22 min—100-5% B. Peaks were detected by absorbance at 220 nm (UV/Vis 151, Gilson) and by fluorescence (excitation and emission wavelengths of 344 and 433 nm; RF-10AXL, Shimadzu). Partition coefficients between PBS and octan-1-ol were determined as previously described.
The syntheses of MitoG, its predicted quinoxaline products upon reaction with methylglyoxal and glyoxal, and their deuterated versions are summarized in FIG. 2. As expected, the spectrum of MitoG was a summation of those of the phenylenediamine, hexyloxyphenylenediamine (HP), and a simple alkylTPP salt.
The expected products of the reaction of MitoG with methylglyoxal (MQE) and glyoxal (QE) were synthesized and have UV/Vis absorption spectra distinct from that of MitoG (FIG. 3B). Both QE and MQE were fluorescent, while MitoG was not (FIG. 3C). The three compounds were resolved by RP-HPLC (FIG. 3D) although the MQE regioisomers (MQE1, MQE2; FIG. 1B) were not distinguished. Both MQE and QE were stable after one week at 37° C. as assessed by RP-HPLC (data not shown). It was concluded that MitoG is sufficiently stable for biological experiments involving trapping of glyoxal and methylglyoxal within mitochondria in cells and in vivo, and the reaction products MQE and QE were both robustly stable for chemical isolation and subsequent LC-MS/MS analyses.

[2] = test system: RLM respiring on glutamate/malate; assay: Effect on respiration of isolated RLM (oxygen electrode); parameters: species or system rat
Method: (A, B) RLM respiring on glutamate/malate at 37° C. were incubated with various concentrations of MitoG for 7 min in an oxygen electrode to measure coupled respiration (A) before ADP was added to measure phosphorylating respiration (B). Data are the percentage of the respiration rates of untreated controls (dashed lines). (C and D) C2C12 cells (C) or BAECs [Bovine Aortic Endothelial Cells; Cell Applications Inc, San Diego, Calif.] (D) were incubated with MitoG for 24 h and cell survival was then determined using the MTS assay. Data are expressed as a percentage of the untreated controls (dashed line). (E-H) BAECs were incubated with MitoG for 2 h at 37° C. and the cellular oxygen consumption rate (OCR) after the sequential additions of oligomycin, FCCP and antimycin A/rotenone were then measured using a Seahorse XF24 analyser. (E) OCR due to ATP synthesis, (F) OCR due to proton leak, (G) reserve capacity and (H) non-mitochondrial oxygen consumption. […]
Rat liver mitochondria (RLM) were prepared at 4° C. in STE buffer [250 mM sucrose, 5 mM Tris and 1 mM EGTA, pH 7.4 (HCl)] by homogenisation and differential centrifugation. Protein concentration was determined using the biuret assay relative to bovine serum albumin (BSA) and was typically 40-60 mg/ml. […] Oxygen consumption rates were determined from the slopes using Chart v5.5.6. for Mac (AD Instruments, Australia). […]

C2C12 cells = assay: Protection against dicarbonyl-induced cell death, C2C12, MTS assay; format: cell-based, mouse; conditions: pre-treated 1 h, overnight
Method: (§1) Isolated RLM respiring on glutamate/malate were incubated with MitoG, methoxyphenylenediamine (MP) or butylTPP for 2 min, followed by 0.5 mM methylglyoxal or 5 mM glyoxal for 5 min. ADP was then added and the rate of oxygen consumption monitored at 37° C. (see FIGS. 12A & 12B). C2C12 cells were pre-treated with MitoG, methoxyphenylenediamine (MP) or butylTPP for 1 h before exposure to 1 mM methylglyoxal or 5 mM glyoxal (see FIGS. 12C & 12D). Following an overnight incubation, cell survival was determined using the MTS assay. Similar experiments were conducted in BAECs pre-treated with MitoG, MP or butylTPP. For all experiments, concentrations of methylglyoxal and glyoxal used were chosen based on results from studies conducted prior to the protection assays. In these prior studies, RLM or cells were exposed to a range of dicarbonyl concentrations, and the phosphorylating rates of respiration or cell survival were evaluated. The results of these earlier experiments are shown in insets, and dicarbonyl concentrations that had caused significant respiratory depression or cell death were chosen for use in the protection assays. Data for all groups were normalized against untreated controls. For RLM, the rate of respiration by untreated controls was taken to be 100%; for cells, cell survival of untreated controls was taken to be 100%. Results are expressed as mean±S.E. of three independent experiments. MitoG was protective against methylglyoxal-induced respiratory depression and both methylglyoxal- and glyoxal-induced cell death in C2C12 cells and BAECs. […] In FIG. 12 the symbols *, ** respectively indicate that P<0.05 or P<0.01 relative to dicarbonyl-only groups; and the symbols +, ++ respectively indicate that P<0.05 or P<0.01 relative to untreated controls.

BAECs = assay: Protection against dicarbonyl-induced cell death, BAECs, MTS assay; format: cell-based, bovine; conditions: pre-treated 1 h, overnight
Method: as §1

## Nc1ccc(OCCCCCC[P+](c2ccccc2)(c2ccccc2)c2ccccc2)cc1N [MitoG, (6-(3,4-Diaminophenoxy)hexyl)triphenylphosphonium chloride]
[1]; 37° C., 4 h
  decomposition of dilute solutions, loss by 4 h: minimal loss
[1]; 37° C., 24 h
  decomposition of dilute solutions, loss by 24 h: significant loss
[1]; dilute solutions, 37° C.
  duration of biological experiments for which sufficiently stable: ~4 h
[1]; storage at −20° C., RP-HPLC
  stability of stock solutions: stable
[2]; 5 μM MitoG
  coupled respiration (proton leak): slight increase in proton leak
[2]; up to 5 μM MitoG
  phosphorylating respiration: no effect
C2C12 cells; C2C12, 1 mM methylglyoxal
  protection against methylglyoxal-induced cell death: protective
C2C12 cells; C2C12, 5 mM glyoxal
  protection against glyoxal-induced cell death: protective
BAECs
  protection against glyoxal-induced cell death: protective
  protection against methylglyoxal-induced cell death: protective
